# Test results: US9387221B2, “SDF-1 binding nucleic acids and the use thereof in cancer treatment” (NOXXON Pharma AG, priority 2010, dated 2016)
# {PEG40k} = 40 kDa polyethylene glycol
# Columns and labels:
# [1] = target: human SDF-1α (Homo sapiens, UniProt P48061); test: Surface plasmon resonance measurement (Biacore 2000); assay type: binding; conditions: Spiegelmer (L-RNA), 37° C.
# Method: The Biacore 2000 instrument (Biacore AB, Uppsala, Sweden) was used to analyze binding of Spiegelmers to human SDF-1α. When coupling of human SDF-1α was to be achieved via amine groups, human SDF-1α was dialyzed against water for 1-2 h (Millipore VSWP mixed cellulose esters; pore size, […]) to remove interfering amines. CM4 sensor chips (Biacore AB, Uppsala, Sweden) were activated before protein coupling by a 35-μl injection of a 1:1 dilution of 0.4 M NHS and 0.1 M EDC at a flow of 5 μl/min. Human MCP-1 or human SDF-1α was then injected in concentrations of 0.1-1.5 μg/ml at a flow of 2 μl/min until the instrument's response was in the range of 1000-2000 RU (relative units). Unreacted NHS esters were deactivated by injection of 35 μl ethanolamine hydrochloride solution (pH 8.5) at a flow of 5 μl/min. The sensor chip was primed twice with binding buffer and equilibrated at 10 μl/min for 1-2 hours until the baseline appeared stable. For all proteins, kinetic parameters and dissociation constants were evaluated by a series of Spiegelmer injections at concentrations of 1000, 500, 250, 125, 62.5, 31.25, and 0 nM in selection buffer (Tris-HCl, 20 mM; NaCl, 137 mM; KCl, 5 mM; CaCl2, 1 mM; MgCl2, 1 mM; Tween20, 0.1% [w/v]; pH 7.4). In all experiments, the analysis was performed at 37° C. using the Kinject command defining an association time of 180 and a dissociation time of 360 seconds at a flow of 10 μl/min. Data analysis and calculation of dissociation constants (KD) was done with the BIAevaluation 3.0 software (BIACORE AB, Uppsala, Sweden) using the Langmuir 1:1 stochiometric fitting algorithm.
# [2] = test system: Human CXCR7; test: CXCR7 β-arrestin complementation assay (PathHunter), CHO cells; assay type: cell-based; conditions: 10 nM human SDF-1, 90 minutes; read-out: IC50, CXCR7 activation (β-galactosidase)
# Method: Besides CXCR4, SDF-1 also binds to the chemokine receptor CXCR7. The inhibitory potential of SDF-1-binding Spiegelmer NOX-A12 towards CXCR7 was tested in a complementation assay with CHO cells stably expressing CXCR7 and β-arrestin both fused to a fragment of β-galactosidase (PathHunter™—β-arrestin assay, DiscoveRX, CA, USA). Upon SDF-1 binding β-arrestin complexed with CXCR7 and thus led to complementation and activation of the β-galactosidase which was measured with a chemiluminescence substrate.
# PathHunter eXpress CHO-K1 Human CXCR7 β-arrestin cells were plated for 48 hours in OCC2 Medium and stimulated with 10 nM SDF-1 and various concentrations of SDF-1-binding Spiegelmer NOX-A12 for 90 minutes. Following stimulation, signal was detected using the PathHUnter Detection Kit and the manufacturer's recommended protocol (DiscoveRX, CA, USA).
# [3] = test system: stromal MS-5 cells; test: Viability of stromal MS-5 cells in the coculture; assay type: cell-based, murine
# Method: The murine stromal cell line MS-5 (ACC 441) was purchased from the DSMZ, the Multiple Myeloma cell line RPMI8226 (CCL-155) was purchased from the ATCC. The Multiple Myeloma cell line RPMI8226 was maintained in RPMI medium 1640 GlutaMAX (Invitrogen) supplemented with 10% FBS (Biochrom) and penicillin-streptomycin, the MS-5 cells were cultured in MEM alpha GlutaMAX (Invitrogen) with 10% FBS and penicillin-streptomycin. For chemosensitization coculture experiments stromal MS-5 cells were seeded the day before onto 24-well plates (the inner eight wells) at a concentration of 8×10^4/mL/well in MEM alpha GlutaMAX medium (+10% FBS) and incubated at 37° C. in 5% CO2. The confluent stromal cell layer was washed and 0.5 mL RPMI medium 1640 (+1% FBS) was added to the wells. SDF-1 binding […] NOX-A12 or revNOX-A12 was subsequently added to the wells to a final concentration of 100 nM and incubated for four hours. 3.5×10^5 RPMI8226 cells in RPMI medium 1640 (+1% FBS) were added to the stromal cell layer. Four hours later, 1 μ[…] (Sigma Aldrich) was added to the cells when indicated. After 40 hours of incubation the cells were collected in 15 mL tubes, first the supernatant was harvested and then the attached cells were trypsinized including MS-5 cells. […] Cell viability and cell number were determined by Flow Cytometry using the Guava EasyCyte 6HT/2L (Millipore).
# Sequence of human SDF-1α (P48061 22-89): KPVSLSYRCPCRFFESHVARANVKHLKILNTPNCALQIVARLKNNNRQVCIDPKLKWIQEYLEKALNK
substance,measurement,setting,value
"5′-40 kDa-PEG-GCGUGGUGUGAUCUAGAUGUAUUGGCUGAUCCUAGUCAGGUACGC (5' {PEG40k}, sugars by position and backbone not given here) [NOX-A12]",Kd,[1],0.2 nM
same,IC50,[2],5.4 nM
same,viability of stromal MS-5 cells,[3],neither affected
